According to PubChem BioAssay AID179 (DTP/NCI, 2004):
Activity calls are given as the source filed them.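 How the source made its calls: active means compounds giving half or more protection of infected cells from virus-caused growth loss, again on retest; inactive means the rest.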 Where a SMILES comes first, the peptide text is derived from it. The star is where a group is joined. Boc = CC(C)(C)OC(=O)*

System: CEM cells HIV-1 protection, formazan growth assay
Experiment: NCI AIDS Antiviral Assay
Conditions: for IC50: measured here: growth of uninfected CEM cells
In short: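 Human CEM cells, uninfected and HIV-1-infected, received five drug concentrations, and growth was read by soluble formazan assay. Compounds giving at least 50% protection were retested; reproducible 100% protection defined confirmed active.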

CCOC(=O)Nc1cc(C)c(NC(=O)CN(CC)CC)c(C)c1
EC50: > 200 µM | IC50: > 200 µM

COc1ccccc1OCC(O)CO (stereo not drawn)
outcome: inactive

CC(=O)OCC1C(OC(C)=O)CC2CCC1N2C#N (stereo not drawn)
EC50: > 200 µM | IC50: > 200 µM

Cc1ccccc1Cn1nc2ccccc2cc1=O
EC50: > 380 µM | IC50: > 380 µM

Cc1c(O)nc(CO)[nH]c1=O
EC50: > 200 µM | IC50: > 200 µM

O=C1N(O)C2(C=CCCC2)/C(=N/O)C12CCCCC2 (stereo not drawn)
EC50: > 70.8 µM | IC50: > 70.8 µM

NS(=O)(=O)c1ccc(CNC(=O)c2ccccc2SC(=O)CCCCC[n+]2ccccc2)cc1
EC50: 2.14 µM | IC50: 39.8 µM

c1cncc(C2c3[nH]c4ccccc4c3CCN2CCN2CCCCC2)c1 (stereo not drawn)
EC50: > 3.98 µM | IC50: > 3.98 µM

CC(NC(=O)C1CCCN1C(=O)CNC(=O)OC(C)(C)C)C(=O)O (stereo not drawn) (Boc-Gly-Pro-Ala-OH; configuration not given here)
EC50: > 200 µM | IC50: > 200 µM

C=CCOc1ccc(C2C(C(=O)OCC)C(=O)CC(C)(O)C2C(=O)OCC)cc1OC (stereo not drawn)
EC50: > 200 µM | IC50: > 200 µM

N#Cc1ccc2oc3ccc(C#N)cc3c(=O)c2c1
outcome: inactive

COC1=C(C)C(=O)c2c(c(COC(N)=O)c3n2CC(OC(C)=O)C3OC(C)=O)C1=O (stereo not drawn)
EC50: > 2 µM | IC50: 0.178 µM

C(=Nc1ccccc1C1SCCCS1)c1ccccc1
EC50: > 200 µM | IC50: > 200 µM

COC(=O)/C(=N\NC(=S)NN)C(C(=O)OC)C(=O)C(=O)Nc1cccc(C(F)(F)F)c1 (stereo not drawn)
EC50: > 537 µM | IC50: 240 µM

Cc1cc2c(nn1)-c1ccccc1C2=O
EC50: > 200 µM | IC50: 105 µM

OCCOCn1nc(-c2ccccc2)nc1-c1cnccn1
EC50: > 200 µM | IC50: > 200 µM

Cc1ccccc1NC(=O)C1C(=O)N(c2ccccc2C)C(=O)/C1=N\NC(N)=O (stereo not drawn)
EC50: > 13.2 µM | IC50: > 13.2 µM

O=C1C=C(NC(c2ccccc2)c2nc3ccccc3[nH]2)C(c2ccccc2)N1c1ccccc1 (stereo not drawn)
outcome: inactive

[N-]=[N+]=C(S(=O)(=O)O)S(=O)(=O)O
EC50: > 200 µM | IC50: > 200 µM

CC12COC3(C)CCC(C)(OC1)N23 (stereo not drawn)
EC50: > 490 µM | IC50: > 490 µM

CC1OC(O[C@H]2C3C=CO[C@@H](OC4OC(CO)C(O)C(O)C4O)C3[C@@]3(COC(=O)/C=C/c4ccc(O)cc4)O[C@@H]23)C(O)C(O)C1O (stereo partly drawn)
EC50: > 200 µM | IC50: > 200 µM

C=C1C(=O)OC2C3C(=C)[C@@H](OC(C)=O)CC3C(C)=CC(OC(=O)C(C)(OC(C)=O)C(C)OC(C)=O)[C@@H]12 (stereo partly drawn)
EC50: > 200 µM | IC50: 10.2 µM

CCOC(=O)/C(=C\c1ccc(N(CCC#N)CCC#N)cc1)NC(=O)c1cc([N+](=O)[O-])ccc1Cl
EC50: > 10.5 µM | IC50: > 10.5 µM

COc1ccc2c(c1)OC(=O)C(S(=O)(=O)c1ccccc1)C2 (stereo not drawn)
EC50: > 295 µM | IC50: > 295 µM

CC(C)C(NCc1c2ccccc2nc2ccccc12)C(=O)O (stereo not drawn)
outcome: inactive

CN(C)C[C@H]1CC[C@@H](CN(C)C)C1=O
outcome: inactive

CC1=CCN(c2ccccn2)OC1c1ccccc1 (stereo not drawn)
EC50: > 74.1 µM | IC50: > 74.1 µM

CC(=O)OCC1OC(NC(=S)CCSc2nc3ccccc3c(=O)n2-c2ccccc2)C(OC(C)=O)C(OC(C)=O)C1OC(C)=O (stereo not drawn)
EC50: > 200 µM | IC50: 28.2 µM

Cn1c(=O)c2nc3sc4c(n3c2n(C)c1=O)C(=O)c1ccccc1C4=O
EC50: > 14.1 µM | IC50: > 14.1 µM

O=C1OC2(OC2c2ccccc2)c2ccccc21 (stereo not drawn)
EC50: > 200 µM | IC50: > 200 µM

CC1(C)S[C@@H]2[C@H](NC(=O)C3(N)CCCC3)C(=O)N2[C@H]1C(=O)O
EC50: > 200 µM | IC50: > 200 µM

O=c1cc(-c2ccccc2)oc2cc(Oc3nnnn3-c3ccccc3)ccc12
EC50: > 200 µM | IC50: 42.7 µM

N#C/C(=C/c1ccc[nH]1)P(=O)(O)O
EC50: > 1260 µM | IC50: 724 µM

CCOC(=O)/C=C/C1OC(C)(C)OC1/C=C/C(=O)OCC (stereo not drawn)
EC50: > 200 µM | IC50: 27.5 µM

CN(C)CCCN1CCC2(CCCCC2)CC1
outcome: inactive

NC(=O)c1cc(N(CCO)CCO)c([N+](=O)[O-])cc1[N+](=O)[O-]
EC50: > 200 µM | IC50: > 200 µM

Cn1c(=O)oc2nc(-c3ccccc3)cc(C(F)(F)F)c21
EC50: > 200 µM | IC50: 19.1 µM

CSc1nc(N)nc(N)n1
EC50: > 200 µM | IC50: > 200 µM

CC(C)(C)[Si](C)(C)OCC1OC(n2cnc3c(=O)[nH]c(NCc4ccccc4)nc32)C(O[Si](C)(C)C(C)(C)C)C1O[Si](C)(C)C(C)(C)C (stereo not drawn)
EC50: > 200 µM | IC50: 141 µM

CCOC(C)C(/C=N/NC(N)=S)=NNC(N)=S (stereo not drawn)
EC50: > 20 µM | IC50: 1.86 µM

O=C(O)c1c(O)ccc(N=Nc2ccc(N=Nc3ccc4c(S(=O)(=O)O)cccc4c3O)c3ccccc23)c1O
EC50: > 100 µM | IC50: > 100 µM

OC/C=C/c1ccc(O)c(O)c1
outcome: inactive

O=C1CCC2(c3ccccc3)Nc3cc([N+](=O)[O-])ccc3N12 (stereo not drawn)
EC50: > 24.5 µM | IC50: > 24.5 µM

O=C1C(=O)N(c2ccc(Cl)cc2Cl)C(=O)C(=O)C1c1nc2ccccc2s1
EC50: > 85.1 µM | IC50: > 85.1 µM

CCC(C)C(NC(=O)C(CCC(N)=O)NC(=O)C(CCC(N)=O)NC(=O)C(CO)NC(=O)C(CC(C)C)NC(=O)C(CC(N)=O)NC(=O)C(N)C(C)O)C(=O)NC(CO)C(=O)NC(CO)C(=O)NC(CC(N)=O)C(=O)O (stereo not drawn) (H-TNLSQQISSN-OH; configuration not given here)
EC50: > 28.8 µM | IC50: > 28.8 µM

OC(c1ccccc1)c1c(-c2ccccc2)[nH]c(-c2ccccc2)c1C(O)c1ccccc1 (stereo not drawn)
outcome: inactive

CCCCCC=C(c1cc(Br)cc(C(=O)O)c1O)c1cc(Br)cc(C(=O)O)c1O
EC50: > 166 µM | IC50: 15.8 µM

CNc1ccc(C)cc1S(=O)(=O)c1ccccc1[N+](=O)[O-]
EC50: 0.832 µM | IC50: 16.6 µM

Nc1ncnc2c1ncn2C1C(=O)C(CO)C1CO (stereo not drawn)
EC50: > 234 µM | IC50: > 234 µM

O=c1ccn(C2OC(COC3CCCCO3)C(OC3CCCCO3)C2OC2CCCCO2)c(=O)n1-c1ccccc1 (stereo not drawn)
EC50: > 200 µM | IC50: > 200 µM

CCCCCCC(=O)COP(=O)(OCC(=O)CCCCCC)OCC1OC(n2cc(C)c(=O)[nH]c2=O)CC1N=[N+]=[N-] (stereo not drawn)
EC50: 0.00107 µM | IC50: 2 µM

O=C1c2c(c3c4ccccc4n(COCCO)c3c3[nH]c4ccccc4c23)C(=O)N1Cc1ccccc1
EC50: > 15.8 µM | IC50: 6.92 µM

CCCCCC(C)[P+](c1ccccc1)(c1ccccc1)c1ccccc1 (stereo not drawn)
EC50: > 200 µM | IC50: 0.955 µM

Cc1ccc(-n2c(Cn3nnc(-c4cccnc4)n3)nn(C3OC(COC(=O)c4ccccc4)C(OC(=O)c4ccccc4)C3OC(=O)c3ccccc3)c2=S)cc1 (stereo not drawn)
EC50: > 200 µM | IC50: > 200 µM

C/C(=C\CNc1ncnc2c1ncn2CCC#N)CO
EC50: > 200 µM | IC50: > 200 µM

COC(=O)C(=O)C(/C=N/C(=S)NC1CCCCC1)=C(\O)c1ccc(F)cc1
EC50: > 200 µM | IC50: > 200 µM

CCN(CC)C(=O)O/N=C/c1ccccc1
EC50: > 200 µM | IC50: > 200 µM

COC(CC1(OC)OC(=O)C=C1N)OC (stereo not drawn)
outcome: inactive

O=C(O)Cc1cc(=O)[nH]c2c1/C(=N/O)CCC2
outcome: inactive

CC(C(=O)O)C(C)(C)C(=O)O (stereo not drawn)
EC50: > 200 µM | IC50: > 200 µM

O=[N+]([O-])c1ccc(C=Cc2ccccc2)cc1.[C-]#[O+].[C-]#[O+].[C-]#[O+].[Cr]
outcome: inactive

S=c1nc[nH]c2nc[nH]c12
EC50: > 234 µM | IC50: 1.51 µM
